Legend:
[1] = maximum absorption wavelength (λmax); assay type: physicochemical; settings: for maximum absorption wavelength: in both dichloromethane and methanol; for λmax / absorption maximum: solvent not stated
Procedure: Refluxing of pure 4a in trichloroacetic acid at 175° C. leads surprising to a new peri-annulated quinoporphyrin-product (5a). The oxidizing agent performing the final oxidation (closing the heterocyclic ring of the quinoline-ring system) to result in the new product is oxygen from the air, similar to what is known for other reactions involving porphyrins (see Woodward, J., Am.. Chem. Soc.. (1960) […]., pp. 3800-3802). The λmax of this new compound 5a is, compared with mesoporphyrindimethylester 1, shifted towards the red (respective values for λmax are: 567 nm and 638 nm).
If desired the metal ion used (here nickel) may be removed in a conventional manner (5 min. conc. sulphuric acid at room temperature, the time required to dissolve completely), yielding the corresponding compounds 6a-6d. Noteworthy are the maximum absorption wavelengths for 6a, 6b, 6c and 6d which are 681, 688, 688 and 683 nm respectively (in both dichloromethane and methanol),which are very long for entirely unsaturated porphyrin ring systems. Benzylation of the quinoline-ring system nitrogen with benzyl bromide/ potassium iodide leads to formation of a cationic benzylated quinoporphyrin (18 N-benzylquinolinium[4,4a,5,6-efg]-annulated mesoporphyrin dimethylester with an absorption maximum at 755 nm. Hydrolysation of this compound yields N-benzylquinolinium[4,4a,5,6-efg]-annulated mesoporphyrin (19).

[2] = solubility of the purified porphyrin in demineralized water; assay type: physicochemical; settings: at about pH 8, demineralized water
Procedure: A solution of 0.61 gram of 6a in 25 ml tetrahydrofuran (THF) was mixed with a solution of 0.20 gram sodium hydroxide in 120 ml of water and refluxed during 1 hour. The reaction was followed with silicagel thin layer chromatography using THF as the eluens. When the reaction is finished THF and water were removed by distillation under reduced pressure until the volume was approximately 20 ml. The crude product was purified over 10 grams of CM Sephadex cation exchanger (bead size 40-120 μm) from Sigma-Aldrich, which was first treated with 1 M hydrochloric acid and then washed with demineralized water. First the porphyrin solution was carried onto the sephadex gel, and washed with demineralized water to remove salts. The purified porphyrin was eluted with 1% ammoniumhydroxide in water. The resulting brown solution was evaporated to dryness, then demineralized water was added and again the solution was evaporated to dryness to remove traces of ammonia. […] Yet this solubility of about 0.5 mg/ml at about pH 8 is better than for other porphyrin compounds such as MTHPC which is currently used in photodynamic therapy. 0.45 grams (77%) of the dicarboxylic acid 7a was obtained.

maximum absorption wavelength [1] [nm]	λmax / absorption maximum [1] [nm]	Substance	further results
688	–	2′-methoxycarbonylquino[4,4a,5,6-qrs]-annulated 18-demethyl-17-de[2-(methoxycarbonyl)ethyl]mesoporphyrin dimethylester [6c]	–
688	–	2′-methoxycarbonylquino[4,4a,5,6-jkl]-annulated 12-demethyl-13-de[2-(methoxycarbonyl)ethyl]mesoporphyrin dimethylester [6b]	–
683	–	quino[4,4a,5,6-abt]-annulated 2-demethyl-3-deethylmesoporphyrin dimethylester [6d]	–
681	–	quino[4,4a,5,6-efg]-annulated 7-demethyl-8-deethylmesoporphyrin dimethylester [6a]	–

Continued, substance first:

Substance	maximum absorption wavelength [1] [nm]	λmax / absorption maximum [1] [nm]	further results
quino[4,4a,5,6-efg]-annulated 7-demethyl-8-deethylmesoporphyrin [7a]	–	–	solubility [2]: about 0.5 mg/ml
quino[4,4a,5,6-efg]-annulated 7-demethyl-8-deethylmesoporphyrin dimethylester nickel (II) complex [5a]	–	638	–
mesoporphyrin dimethylester [compound 1, reference compound]	–	567	–
N-benzylquinolinium[4,4a,5,6-efg]-annulated mesoporphyrin dimethylester [compound 18]	–	755	–
